In patent US6262046A, “Azetidinylpropylpiperidine derivatives, intermediates and use as tachykinin antagonists” (Pfizer Inc., priority 1997, dated 2001):

What follows are compounds tested against T1, guinea pig cortex NK3 receptor (Cavia porcellus, UniProt P30098) (assay: in vitro affinity for the guinea pig cortex NK3 receptor (displacement of [^3 H] senktide)). Conditions: displacement of [^3 H] senktide at guinea pig cortex NK3 receptor.
T1 construct: guinea pig cortex NK3 receptor; from tissue; host or cells: guinea pig (brain) cortex, prepared by the cited method of Guard et al., Br. J. Pharmacol. (1990), 99, 767
T1 sequence (P30098 1-440): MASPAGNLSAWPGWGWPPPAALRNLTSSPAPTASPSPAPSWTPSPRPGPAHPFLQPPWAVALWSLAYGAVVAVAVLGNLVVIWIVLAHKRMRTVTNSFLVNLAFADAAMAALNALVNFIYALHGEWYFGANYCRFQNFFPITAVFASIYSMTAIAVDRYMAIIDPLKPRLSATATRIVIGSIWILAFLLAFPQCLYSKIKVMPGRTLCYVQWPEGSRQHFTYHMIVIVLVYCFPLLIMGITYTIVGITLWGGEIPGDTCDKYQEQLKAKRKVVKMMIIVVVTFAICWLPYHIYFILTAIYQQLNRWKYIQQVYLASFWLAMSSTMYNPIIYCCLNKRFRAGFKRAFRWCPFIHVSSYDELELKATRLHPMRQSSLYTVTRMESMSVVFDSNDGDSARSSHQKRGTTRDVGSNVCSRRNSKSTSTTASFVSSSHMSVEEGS
Type: binding
Description: The affinity of the compounds of formula (I) and their salts for the NK3 receptor can be tested in vitro by testing their ability to displace [^3 H] senktide at the guinea pig cortex NK3 receptor. The receptors are prepared by the method described by S. Guard, et al, in Br.J.Pharmacol. (1990), 99, 767.
The data below illustrates the in vitro affinity of substances of the invention for the guinea pig cortex NK3 receptor, which assays were carried out according to the method mentioned earlier on page 15.
For `CS(=O)(=O)N1CCN(C2CN(CCC[C@]3(c4ccc(Cl)c(Cl)c4)CCCN(C(=O)c4ccccc4)C3)C2)CC1` [Example 3, (+)-3(R)-1-Benzoyl-3-(3,4-dichlorophenyl)-3-(3-[3-(4-methanesulphonylpiperazin-1-yl)azetidin-1-yl]propyl)piperidine], the IC50 was 1.58 nM.
`CS(=O)(=O)N1CCN(C2CN(CCC[C@]3(c4ccc(Cl)c(Cl)c4)CCCN(C(=O)c4ccc(F)c(F)c4)C3)C2)CC1` [Example 17, (+)-3(R)-3-(3,4-Dichlorophenyl)-1-(3,4-difluorobenzoyl)-3-(3-[3-(4-methanesulphonylpiperazin-1-yl)azetidin-1-yl]propyl)piperidine] gave an IC50 of 3.98 nM.
In the case of `CS(=O)(=O)N(c1ccccc1)C1CN(CCC[C@]2(c3ccc(Cl)c(Cl)c3)CCCN(C(=O)c3ccccc3)C2)C1` [Example 13], the IC50 is reported as 11.2 nM.
